Experimental data from patent US9409952B2, “Peptide-compound cyclization method” (Chugai Seiyaku Kabushiki Kaisha, priority 2011, dated 2016).
Like-named read-outs stand apart in the source and are kept apart here. Starred links: 1 amine or outer side, 2 acyl side, 3 side chain; linkers in the order of their positions; H or OH if unused. Positions of bridges follow the written chain, without caps; N, C: chain ends. Non-standard residues stand in square brackets, D forms with d. Residues, ends and D or L forms follow the SMILES beside them. *: point of attachment. Phe(4-(CH2)5CO) = O=C([C@H](Cc1ccc(CCCCCC(=O)[*:3])cc1)N[*:1])[*:2]; NMeF = CN[C@@H](Cc1ccccc1)C(=O)O; NMeGABA = CN(CCCC(=O)[*:2])[*:1]; NMeI = CC[C@H](C)[C@H](NC)C(=O)O; hPhe = N[C@@H](CCc1ccccc1)C(=O)O; NMeβAla = CN(CCC(=O)[*:2])[*:1]; NMeL = CN[C@@H](CC(C)C)C(=O)O; NMeV = CN[C@H](C(=O)O)C(C)C; NMeA = CN[C@@H](C)C(=O)O; Piperidide = C1CCN(*)CC1; dNMeA = CN[C@H](C)C(=O)O; β3hA = C[C@H](N)CC(=O)O; Sar = CNCC(=O)O; tBu = CC(C)(C)*

Legend:
[1] = PAMPA (parallel artificial membrane permeability assay); type: in vitro ADME; conditions: PAMPA
Method in brief: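 Artificial membrane was 10% (w/v) egg lecithin plus 0.5% (w/v) cholesterol in dodecane on a PVDF filter. A 10 mM DMSO stock was added at 0.5% (v/v) to donor buffer (50 mM MOPSO, pH 6.5, 5.0% glycocholic acid). After 18 h at 37 °C, LC/MS or LC/UV gave donor and acceptor levels for Pe.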

[2] = Metabolic stability in human hepatic microsome; type: in vitro ADME; conditions: microsomes
[3] = membrane permeation rate (Pe), 50 mM MOPSO buffer pH 6.5 with 5.0% glycocholic acid, 37° C., 18 hours, read-out: iPAMPA Pe
[4] = pH 7.4, human hepatic microsome, NADPH(+), read-out: CL NADPH(+)

Row | SMILES | Papp at 18 hours, 50 µM [1, 3] | microsomal CLint at 1 uM [2, 4] | Papp at 18 hours, 50 µM ([1]; pH 6.5) | microsomal CLint at 1 uM ([2]; human, pH 7.4, CL NADPH(+))
1 | CC(C)C[C@H]1C(=O)N[C@H](C(=O)N2CCCCC2)CC(=O)N(C)[C@@H](C)C(=O)N(C)[C@@H](Cc2ccccc2)C(=O)N(C)[C@@H](CC(C)C)C(=O)N[C@@H]([C@@H](C)O)C(=O)N(C)CC(=O)N1C [DP-533] ([NMeA][NMeF][NMeL]T[Sar][NMeL]D-Piperidide; lactam N-7) | 10 ×10⁻⁶ cm/s | 86 µL/min/mg | – | –
2 | CC[C@H](C)[C@H]1C(=O)NCC(=O)N(C)[C@@H](Cc2ccccc2)C(=O)N(C)[C@@H](Cc2ccccc2)C(=O)N(C)[C@@H](CC(C)C)C(=O)N(C)[C@@H](CC(C)C)C(=O)N[C@H](C(=O)N2CCCCC2)CC(=O)N(C)[C@H](C)C(=O)N[C@@H]([C@@H](C)O)C(=O)N(C)[C@@H](C)C(=O)N1C [DP-74] ([dNMeA]T[NMeA][NMeI]G[NMeF][NMeF][NMeL][NMeL]D-Piperidide; lactam N-10) | – | – | 29 ×10⁻⁶ cm/s | 118 µL/min/mg
3 | CC(C)[C@@H]1NC(=O)[C@H](C)N(C)C(=O)[C@H](C(C)C)N(C)C(=O)CCN(C)C(=O)C[C@@H](C(=O)N(C)[C@@H](Cc2ccccc2)C(=O)N(C)[C@@H](Cc2ccccc2)C(=O)N[C@@H](C)C(=O)N2CCCCC2)NC(=O)[C@H](C)N(C)C(=O)[C@H](C)N(C)C(=O)[C@H]([C@@H](C)O)NC(=O)[C@H](C)N(C)C(=O)[C@H](Cc2ccccc2)N(C)C1=O [DP-450] ([NMeβAla][NMeV][NMeA]V[NMeF][NMeA]T[NMeA][NMeA]D[NMeF][NMeF]A-Piperidide; lactam N-10) | 2.3 ×10⁻⁶ cm/s | 17 µL/min/mg | – | –
4 | CC[C@H](C)[C@H](NC(=O)[C@@H](NC(=O)[C@H](C)N(C)C(=O)[C@@H]1CC(=O)N(C)[C@@H](C)C(=O)N(C)[C@@H](CC(C)C)C(=O)N(C)[C@@H](CC(C)C)C(=O)N[C@@H](CC(C)C)C(=O)N(C)[C@@H](CC(C)C)C(=O)N(C)[C@@H](Cc2ccccc2)C(=O)N(C)[C@@H](Cc2ccccc2)C(=O)N[C@@H]([C@@H](C)O)C(=O)N(C)[C@@H](C)C(=O)N(C)[C@@H](CC(C)C)C(=O)N1)C(C)C)C(=O)N1CCCCC1 [DP-951] ([NMeA][NMeL][NMeL]L[NMeL][NMeF][NMeF]T[NMeA][NMeL]D[NMeA]VI-Piperidide; lactam N-11) | 0.1 ×10⁻⁶ cm/s | 11 µL/min/mg | – | –
5 | CC[C@H](C)[C@@H]1NC(=O)[C@H](CC(C)C)N(C)C(=O)CCN(C)C(=O)C[C@@H](C(=O)N(C)[C@@H](Cc2ccccc2)C(=O)N(C)[C@@H](Cc2ccccc2)C(=O)N[C@@H](C)C(=O)N2CCCCC2)NC(=O)[C@H](C(C)C)N(C)C(=O)[C@H](CC(C)C)N(C)C(=O)CN(C)C(=O)[C@H]([C@@H](C)O)NC(=O)[C@H](Cc2ccccc2)NC(=O)[C@H](C(C)C)N(C)C1=O [DP-496] ([NMeβAla][NMeL]I[NMeV]FT[Sar][NMeL][NMeV]D[NMeF][NMeF]A-Piperidide; lactam N-10) | 23 ×10⁻⁶ cm/s | 13 µL/min/mg | – | –
6 | CC(C)C[C@H]1C(=O)N[C@@H](COC(C)(C)C)C(=O)N[C@H](C(=O)N2CCCCC2)CC(=O)N(C)CCC(=O)N(C)[C@@H](C)C(=O)N(C)[C@@H](Cc2ccccc2)C(=O)N(C)[C@@H](CC(C)C)C(=O)N[C@@H]([C@@H](C)O)C(=O)N(C)[C@@H](C)C(=O)N1C [DP-269] ([NMeβAla][NMeA][NMeF][NMeL]T[NMeA][NMeL]S(tBu)D-Piperidide; lactam N-9) | 11 ×10⁻⁶ cm/s | 58 µL/min/mg | – | –
7 | CC[C@H](C)[C@@H]1NC(=O)CCCCCc2ccc(cc2)C[C@@H](C(=O)N2CCCCC2)NC(=O)[C@H](Cc2ccccc2)N(C)C(=O)[C@H](CC(C)C)N(C)C(=O)[C@H](C)N(C)C(=O)[C@H](Cc2ccccc2)N(C)C(=O)[C@H]([C@@H](C)O)NC(=O)[C@H](CC(C)C)N(C)C(=O)[C@H](C)N(C)C(=O)[C@H](CC(C)C)N(C)C1=O [DP-868] (I[NMeL][NMeA][NMeL]T[NMeF][NMeA][NMeL][NMeF][Phe(4-(CH2)5CO)]-Piperidide; lactam N-10) | 0.24 ×10⁻⁶ cm/s | 61 µL/min/mg | – | –
8 | CC[C@H](C)[C@H]1C(=O)N[C@@H](C)C(=O)N(C)[C@@H](CC(C)C)C(=O)N[C@@H](COC(C)(C)C)C(=O)N(C)[C@@H](CC(C)C)C(=O)N[C@H](C(=O)N2CCCCC2)CC(=O)N(C)CCC(=O)N[C@@H](Cc2ccccc2)C(=O)N(C)[C@@H](Cc2ccccc2)C(=O)N(C)[C@@H](CC(C)C)C(=O)N[C@@H]([C@@H](C)O)C(=O)N(C)[C@@H](C)C(=O)N1C [DP-92] ([NMeβAla]F[NMeF][NMeL]T[NMeA][NMeI]A[NMeL]S(tBu)[NMeL]D-Piperidide; lactam N-12) | 26 ×10⁻⁶ cm/s | 29 µL/min/mg | – | –
9 | CC[C@H](C)[C@@H]1NC(=O)[C@H](CC(C)C)NC(=O)[C@H](C(C)C)NC(=O)[C@H](CC(C)C)N(C)C(=O)[C@H](CC(C)C)NC(=O)[C@H](CCc2ccccc2)NC(=O)[C@H]([C@@H](C)O)NC(=O)[C@H](C)N(C)C(=O)[C@H](CC(C)C)NC(=O)[C@H](C)N(C)C(=O)C[C@@H](C(=O)N2CCCCC2)NC1=O [DP-728] ([NMeA]L[NMeA]T[hPhe]L[NMeL]VLID-Piperidide; lactam N-11) | 6.5 ×10⁻⁶ cm/s | 42 µL/min/mg | – | –
10 | CC[C@H](C)[C@@H]1NC(=O)[C@H](Cc2ccccc2)N(C)C(=O)CCCCCc2ccc(cc2)C[C@@H](C(=O)N2CCCCC2)NC(=O)[C@H](C(C)C)N(C)C(=O)[C@H](Cc2ccccc2)N(C)C(=O)[C@H](COC(C)(C)C)NC(=O)[C@H](CC(C)C)N(C)C(=O)CN(C)C(=O)[C@H]([C@@H](C)O)NC(=O)[C@H](CC(C)C)N(C)C1=O [DP-861] ([NMeF]I[NMeL]T[Sar][NMeL]S(tBu)[NMeF][NMeV][Phe(4-(CH2)5CO)]-Piperidide; lactam N-10) | 2.9 ×10⁻⁶ cm/s | 320 µL/min/mg | – | –
11 | CC(C)C[C@@H]1NC(=O)[C@H](CC(C)C)N(C)C(=O)CCN(C)C(=O)C[C@@H](C(=O)N(C)[C@@H](Cc2ccccc2)C(=O)N[C@@H](C)C(=O)N2CCCCC2)NC(=O)[C@H]([C@@H](C)O)NC(=O)[C@H](CC(C)C)N(C)C(=O)[C@H](Cc2ccccc2)NC(=O)[C@H](Cc2ccccc2)N(C)C(=O)[C@H](CC(C)C)N(C)C1=O [DP-461] ([NMeβAla][NMeL]L[NMeL][NMeF]F[NMeL]TD[NMeF]A-Piperidide; lactam N-9) | 33 ×10⁻⁶ cm/s | 78 µL/min/mg | – | –
12 | CC[C@H](C)[C@H]1C(=O)N(C)[C@@H](C(C)C)C(=O)N(C)[C@@H](CC(C)C)C(=O)N[C@@H]([C@@H](C)O)C(=O)N[C@H](C(=O)N2CCCCC2)CC(=O)N(C)CCCC(=O)N[C@@H](Cc2ccccc2)C(=O)N(C)[C@@H](CC(C)C)C(=O)N(C)[C@@H](C)C(=O)N(C)[C@@H](Cc2ccccc2)C(=O)N[C@@H](C)C(=O)N1C [DP-250] ([NMeGABA]F[NMeL][NMeA][NMeF]A[NMeI][NMeV][NMeL]TD-Piperidide; lactam N-11) | 29 ×10⁻⁶ cm/s | 42 µL/min/mg | – | –
13 | CC(C)C[C@H]1C(=O)N(C)[C@@H](Cc2ccccc2)C(=O)NCC(=O)N[C@@H](C)CC(=O)N(C)CCCC(=O)N[C@@H]([C@@H](C)O)C(=O)N(C)[C@@H](C)C(=O)N(C)[C@@H](Cc2ccccc2)C(=O)N[C@@H](COC(C)(C)C)C(=O)N1C [DP-785] (cyclo(G[β3hA][NMeGABA]T[NMeA][NMeF]S(tBu)[NMeL][NMeF])) | – | – | 29 ×10⁻⁶ cm/s | 193 µL/min/mg
14 | CC[C@H](C)[C@@H]1NC(=O)[C@H](Cc2ccccc2)N(C)C(=O)[C@@H](C)NC(=O)C[C@@H](C(=O)N2CCCCC2)NC(=O)[C@H](C(C)C)N(C)C(=O)[C@H](Cc2ccccc2)N(C)C(=O)[C@H](COC(C)(C)C)NC(=O)[C@H](CC(C)C)N(C)C(=O)CN(C)C(=O)[C@H]([C@@H](C)O)NC(=O)[C@H](CC(C)C)N(C)C1=O [DP-110] ([dA][NMeF]I[NMeL]T[Sar][NMeL]S(tBu)[NMeF][NMeV]D-Piperidide; lactam N-11) | 30 ×10⁻⁶ cm/s | 36 µL/min/mg | – | –
15 | CC[C@H](C)[C@H]1C(=O)N[C@H](C(=O)N(C)[C@@H](Cc2ccccc2)C(=O)N[C@@H](C)C(=O)N2CCCCC2)CC(=O)N[C@@H](C)C(=O)N(C)[C@@H](Cc2ccccc2)C(=O)N(C)[C@@H](CC(C)C)C(=O)N[C@@H]([C@@H](C)O)C(=O)N(C)[C@@H](C)C(=O)N[C@@H](C(C)C)C(=O)N(C)[C@@H](CC(C)C)C(=O)N1C [DP-305] (A[NMeF][NMeL]T[NMeA]V[NMeL][NMeI]D[NMeF]A-Piperidide; lactam N-9) | – | – | 35 ×10⁻⁶ cm/s | 700 µL/min/mg
16 | CC[C@H](C)[C@H]1C(=O)NCC(=O)N(C)[C@@H](CC(C)C)C(=O)N[C@@H](CC(C)C)C(=O)N[C@H](C(=O)N2CCCCC2)CC(=O)N(C)[C@@H](C)C(=O)N[C@@H](CC(C)C)C(=O)N(C)[C@@H](C)C(=O)N[C@@H]([C@@H](C)O)C(=O)N2CCC[C@H]2C(=O)N(C)[C@@H](Cc2ccccc2)C(=O)N[C@@H](Cc2ccccc2)C(=O)N1C [DP-220] ([NMeA]L[NMeA]TP[NMeF]F[NMeI]G[NMeL]LD-Piperidide; lactam N-12) | – | – | 33 ×10⁻⁶ cm/s | 26 µL/min/mg
17 | CC[C@H](C)[C@@H]1NC(=O)[C@H](CC(C)C)N(C)C(=O)[C@H](Cc2ccccc2)NC(=O)[C@H](C)N(C)C(=O)C[C@@H](C(=O)N(C)[C@@H](Cc2ccccc2)C(=O)N(C)[C@@H](Cc2ccccc2)C(=O)N[C@@H](C)C(=O)N2CCCCC2)NC(=O)[C@H](C(C)C)N(C)C(=O)[C@H](C)N(C)C(=O)[C@H](C)N(C)C(=O)[C@H]([C@@H](C)O)NC(=O)CN(C)C1=O [DP-394] ([NMeA]F[NMeL]I[Sar]T[NMeA][NMeA][NMeV]D[NMeF][NMeF]A-Piperidide; lactam N-10) | 22 ×10⁻⁶ cm/s | 10 µL/min/mg | – | –
